“Also recorded” adds a separate entry of the source.
What was measured:
[1] = system: AlCl3-induced AD rat model; assay: Y-maze SAP test in AlCl3-induced AD rats; assay type: in vivo; details: for SAP%: mean ± SE, n = 6
Protocol: All procedures were conducted conforming to the applicable National Institutes of Health standards and regulations for the Care and Use of Laboratory Animals. In this experiment, adult male Dawley rats in excellent condition weighing between 300 and 320 g were used. The animals were acquired from the Nile Company for Pharmaceuticals and Chemical Industries (Cairo, Egypt). They were placed in a controlled laboratory setting with unrestricted access to water, a temperature range of 24 to 26 °C, and 12 h a light–dark cycle. Three rats per cage were housed in polycarbonate cages that were individually packed with paper and encased with stainless steel wire.
One kind of short-term memory that SAP can represent is spatial working memory. Three arms, designated A, B, or C, were employed in a black hardwood Y-maze with a symmetrical triangular core space. Rats were briefly positioned at the edge of one arm and given 8 min to freely navigate around the maze. When the rat’s rear paws were fully inside the arm, the entries were counted. The following formula was used to determine SAP based on the total number of arm entries and alternations: SAP (%) = [number of alternations/(total arm entries − 2)] × 100 [94].

[2] = system: 5-HT; assay: Brain 5-HT level (fluorometric); assay type: in vivo, rat; details: AlCl3-induced AD rats; for 5-HT (ng/g Tissue): brain tissue, mean ± SE, n = 6
Protocol: (§1) The brain tissues of the rats were removed and rigorously washed in isotonic saline 24 h after they were euthanized following the last behavioral test. For histological investigation, four brains per group were preserved for the whole night in 10% neutral buffered formalin. The remaining six brains were split into two sections each. In order to create a 10% homogenate (w/v), the first component was instantaneously homogenized using an ice-cold solution that included 300 mM sucrose and 50 mM Tris-HCl (pH 7.4). The homogenate was centrifuged at 1800× g for 10 min at 4 °C for biochemical tests, and the supernatant was thereafter kept at −20 °C. The second portion was set aside for use in RT-PCR analysis at −80 °C [94].
(§2) Brain monoamine levels were promptly assessed following the rats’ euthanasia to prevent changes in the substance’s concentration. Dopamine (DA), norepinephrine (NE), and serotonin (5-HT) fluorometric tests were conducted on brain tissue homogenate using the Ciarlone method. […] The concentrations were articulated as nanograms per gram of fresh tissue using the fluorescence of reference solutions [95].

[3] = system: NE; assay: Brain NE level (fluorometric); assay type: in vivo, rat; details: AlCl3-induced AD rats; for NE (nmol/g Tissue): brain tissue, mean ± SE, n = 6
Protocol: as §1, §2

[4] = system: BDNF; assay: Brain BDNF level (ELISA); assay type: in vivo, rat; details: AlCl3-induced AD rats; for BDNF (ng/mL): brain tissue, mean ± SE, n = 6
Protocol: as §1
(§3) See Supplementary Information.

[5] = system: AChE; assay type: in vivo; parameters: reduction in AChE levels: concentration or dose not given beside the values; details: AlCl3-induced AD rats; for AChE (ng/g Tissue): brain tissue, mean ± SE, n = 6; for reduction in AChE levels: brain
[6] = system: IL-1β; assay: Brain IL-1β level (ELISA); assay type: in vivo, rat; parameters: reduction in IL-1β levels: concentration or dose not given beside the values; details: AlCl3-induced AD rats; for IL-β (pg/g Tissue): mean ± SE, n = 6
Protocol: as §1, with “[94]. […]” for “[94].”

[7] = system: TLR4; assay: TLR4 mRNA expression (RT-qPCR); assay type: in vivo, rat; parameters: reduction of TLR4 mRNA expression: concentration or dose not given beside the values; details: AlCl3-induced AD rats; for TLR4: mRNA expression level, mean ± SE, n = 6
Protocol: as §1, §3

[8] = system: NFκβ; assay: NFκβ mRNA expression (RT-qPCR); assay type: in vivo, rat; parameters: reduction of NFκβ mRNA expression: concentration or dose not given beside the values; details: AlCl3-induced AD rats; for NFκβ: mRNA expression level, mean ± SE, n = 6
Protocol: as §1, §3

[9] = system: Caspase-1; assay: Caspase-1 gene expression (RT-qPCR); assay type: in vivo, rat; parameters: reduction of Caspase-1 levels: concentration or dose not given beside the values; details: AlCl3-induced AD rats; for Caspase-1: gene expression, mean ± SE, n = 6
Protocol: as §1, §3

[10] = system: Bcl-2; assay: Bcl-2 gene expression (RT-qPCR); assay type: in vivo, rat; details: AlCl3-induced AD rats; for Bcl-2: gene expression, mean ± SE, n = 6
Protocol: as §1, §3

[11] = system: Wnt3a; assay: Brain Wnt3a level; assay type: in vivo, rat; details: AlCl3-induced AD rats; for Wnt3a (ng/g Tissue): mean ± SE, n = 6
Protocol: as §1, §3

[12] = system: GSK3β; assay: GSK3β gene expression (RT-qPCR); assay type: in vivo, rat; details: AlCl3-induced AD rats; for GSK3β: gene expression, mean ± SE, n = 6
Protocol: as §1, §3

[13] = system: β-catenin; assay: Brain β-catenin level; assay type: in vivo, rat; details: AlCl3-induced AD rats; for β-Catenin (ng/L): mean ± SE, n = 6
Protocol: as §1, §3

[14] = system: SOD; assay: Brain SOD activity (colorimetric); assay type: in vivo, rat; details: AlCl3-induced AD rats; for SOD(U/g): brain tissue, mean ± SE, n = 6
Protocol: as §1
The SOD enzyme activity was estimated using the Marklund et al. method, which is founded on the enzyme’s capacity to decrease the nitro blue tetrazolium dye at a wavelength of 540 nm. To evaluate the TAC, a colorimetric approach was employed to estimate the amount of hydrogen peroxide that remains after 3,5-dichloro-2-hydroxybenzene sulphonate is converted to a colored product at 660 nm.

[15] = system: Nrf-2; assay: Nrf-2 mRNA expression (RT-qPCR); assay type: in vivo, rat; details: AlCl3-induced AD rats; for Nrf-2: mRNA expression in brain tissue, mean ± SE, n = 6
Protocol: as §1, §3

[16] = system: HO-1; assay: HO-1 mRNA expression (RT-qPCR); assay type: in vivo, rat; details: AlCl3-induced AD rats; for HO-1: mRNA expression in brain tissue, mean ± SE, n = 6
Protocol: as §1, §3

[17] = system: brain tissue (CC, ST, FD, SN neurons); assay: Histopathological examination of brain tissue; assay type: in vivo, rat; details: brain sections, AlCl3-induced AD rats; for histopathological finding in CC, ST, FD and SN (NP = nuclear pyknosis): H&E
Protocol: as §1
Brain tissue samples were stationed in 10% formalin for 24 h, washed with water, and then serially diluted with alcohol to induce dehydration. After being submerged in paraffin, the specimens were cut into segments that were 4 µm thick using a microtome.

[18] = system: BAX/Bcl-2; assay: BAX/Bcl-2 ratio of gene expression; assay type: in vivo, rat; details: AlCl3-induced AD rats
Protocol: as §1, §3

Structure (SMILES)	SAP% [1]	elevation of 5-HT levels [2] [fold]	5-HT (ng/g Tissue) [2]	NE (nmol/g Tissue) [3]	BDNF (ng/mL) [4]	AChE (ng/g Tissue) [5]	reduction in AChE levels [5] [%]	reduction in IL-1β levels [6] [%]	IL-β (pg/g Tissue) [6]	TLR4 [7]	NFκβ [8]	Caspase-1 [9]	Bcl-2 [10]	elevation of Wnt3a levels [11] [fold]	Wnt3a (ng/g Tissue) [11]	GSK3β [12]	elevation of β-catenin levels [13] [fold]	β-Catenin (ng/L) [13]	SOD(U/g) [14]	Nrf-2 [15]	also measured
CCOC(=O)c1c(O)sc2c1CCCCC2 [Compound 2, Ethyl 2-hydroxy-5,6,7,8-tetrahydro-4H-cyclohepta[b]thiophene-3-carboxylate]	62.33 ± 1.05 ^abc %	1.7	3.16 ± 0.63 ^abc ng/g Tissue	256.9 ± 1.62 ^abc nmol/g Tissue	64.95 ± 0.01 ^abc ng/mL	51.41 ± 0.13 ^abc ng/g Tissue	23.6	20.6	93.93 ± 1.26 ^abc pg/g Tissue	7.66 ± 0.12 ^abc	6.53 ± 0.08 ^abc	7.46 ± 0.120 ^abc	0.27 ± 0.007 ^abc	2	0.25 ± 0.01 ^abc ng/g Tissue	8.80 ± 0.12 ^abc	2.7	4.262 ± 0.12 ^abc ng/L	0.68 ± 0.26 ^abc U/g	0.25 ± 0.008 ^abc	increase in SAP% [1]: 14.6%; reduction of GSK3β gene expression [12]: 13.7%; HO-1 [16]: 0.34 ± 0.032 ^abc; histopathological finding in CC, ST, FD and SN (NP = nuclear pyknosis) [17]: moderate NP in CC, FD, and SN, in addition to normal histology in ST; also recorded: significant NP in the CC, FD, and SN, whereas the striatal neurons’ histological structures remained normal; BAX/Bcl-2 Ratio [18]: 30.11
N#Cc1ccc(N2CC(=O)Oc3sc4c(c3C2=O)CCCCC4)cc1 [Compound 13, 4-(2,5-Dioxo-2,3,7,8,9,10-hexahydro-6H-cyclohepta[4,5]thieno[3,2-f][1,4]oxazepin-4(5H)-yl)benzonitrile]	82.67 ± 1.28 ^abc %	4.1	7.39 ± 0.1 ^abc ng/g Tissue	449.6 ± 2.3 ^abc nmol/g Tissue	104.9 ± 0.07 ^abc ng/mL	24.35 ± 0.8 ^abc ng/g Tissue	63.8	61.3	45.79 ± 1.34 ^abc pg/g Tissue	4.09 ± 0.27 ^abc	3.49 ± 0.07 ^abc	3.85 ± 0.070 ^abc	0.79 ± 0.020 ^abc	7	0.84 ± 0.01 ^abc ng/g Tissue	3.63 ± 0.04 ^abc	7.7	11.67 ± 0.13 ^abc ng/L	2.53 ± 0.25 ^abc U/g	0.78 ± 0.010 ^abc	increase in SAP% [1]: ~35%; rise in the level of NE [3]: 2.4 times; elevation of BDNF levels [4]: 2.4 fold; reduction of TLR4 mRNA expression [7]: 57.5%; reduction of NFκβ mRNA expression [8]: 58.8%; reduction of Caspase-1 levels [9]: 59.5%; upregulation of Bcl-2 gene expression [10]: 6.5 fold; elevation of Nrf-2 mRNA expression [15]: 4.8 fold; elevation of HO-1 mRNA expression [16]: 6.2 fold; HO-1 [16]: 0.75 ± 0.010 ^abc; histopathological finding in CC, ST, FD and SN (NP = nuclear pyknosis) [17]: normal histology of CC and FD, and moderate NP in ST and SN; histology of CC neurons and FD [17]: normal histological structures; pyknosis in ST and SN neurons [17]: moderate pyknosis; BAX/Bcl-2 Ratio [18]: 7.34
O=C1CN(c2ccc(O)cc2)C(=O)c2c(sc3c2CCCCC3)O1 [Compound 15, 4-(4-Hydroxyphenyl)-3,4,7,8,9,10-hexahydro-6H-cyclohepta[4,5]thieno[3,2-f][1,4]oxa-zepine-2,5-dione]	82.5 ± 0.89 ^abc %	3.7	6.77 ± 0.22 ^abc ng/g Tissue	499.8 ± 2.85 ^abc nmol/g Tissue	94.48 ± 0.05 ^abc ng/mL	25.73 ± 0.37 ^abc ng/g Tissue	61.8	61.1	45.66 ± 1.03 ^abc pg/g Tissue	4.57 ± 0.09 ^abc	2.98 ± 0.10 ^abc	2.94 ± 0.110 ^abc	0.86 ± 0.020 ^abc	7.3	0.88 ± 0.01 ^abc ng/g Tissue	4.72 ± 0.05 ^abc	8.8	13.86 ± 0.11 ^abc ng/L	2.56 ± 0.54 ^abc U/g	0.82 ± 0.020 ^abc	increase in SAP% [1]: ~34.8%; rise in the level of NE [3]: 2.7 times; elevation of BDNF levels [4]: 2.2 fold; reduction of TLR4 mRNA expression [7]: 52.5%; reduction of NFκβ mRNA expression [8]: 64.8%; reduction of Caspase-1 levels [9]: 69.1%; upregulation of Bcl-2 gene expression [10]: 7.1 fold; reduction of GSK3β gene expression [12]: 53.7%; elevation of Nrf-2 mRNA expression [15]: 5.1 fold; elevation of HO-1 mRNA expression [16]: 6.7 fold; HO-1 [16]: 0.82 ± 0.005 ^abc; histopathological finding in CC, ST, FD and SN (NP = nuclear pyknosis) [17]: normal histology of CC and FD, and moderate NP in ST and SN; histology of CC neurons and FD [17]: normal histological structures; pyknosis in ST and SN neurons [17]: moderate pyknosis; BAX/Bcl-2 Ratio [18]: 5.20
CCOC(=O)c1c(OC(=O)CCl)sc2c1CCCCC2 [Compound 4, Ethyl 2-(2-chloroacetoxy)-5,6,7,8-tetrahydro-4H-cyclohepta[b]thiophene-3-carboxylate]	72.67 ± 1.02 ^abc %	2.4	4.29 ± 0.76 ^abc ng/g Tissue	282.6 ± 1.2 ^abc nmol/g Tissue	75.75 ± 0.01 ^abc ng/mL	43.89 ± 0.19 ^abc ng/g Tissue	34.8	30	82.82 ± 1.1 ^abc pg/g Tissue	6.39 ± 0.12 ^abc	5.77 ± 0.19 ^abc	6.46 ± 0.120 ^abc	0.38 ± 0.020 ^abc	2.8	0.34 ± 0.01 ^abc ng/g Tissue	6.86 ± 0.15 ^abc	3.9	6.17 ± 0.07 ^abc ng/L	1.75 ± 0.31 ^abc U/g	0.31 ± 0.004 ^abc	reduction of GSK3β gene expression [12]: 32.7%; SOD activity levels ([14]; brain): 1.75 U/g tissue; HO-1 [16]: 0.39 ± 0.007 ^abc; histopathological finding in CC, ST, FD and SN (NP = nuclear pyknosis) [17]: moderate NP in CC and SN, a moderate number of necrotic neurons in FD, as well as normal histology of ST neurons; also recorded: significant NP in the CC, FD, and SN, whereas the striatal neurons’ histological structures remained normal; BAX/Bcl-2 Ratio [18]: 19.53

— publication PMC12389534, “Unlocking Therapeutic Potential of Novel Thieno-Oxazepine Hybrids as Multi-Target Inhibitors of AChE/BChE and Evaluation Against Alzheimer’s Disease: In Vivo, In Vitro, Histopathological, and Docking Studies” (Pharmaceuticals, 2025)
